According to US20070032502A1, “Quinazoline derivatives useful in cancer treatment” (Schering Corporation, priority 2005, published 2007):
pEC50: −log10 of the molar value. Where two headings read alike, the source gives them in different places.

How the values were obtained:
[1] = target: GST-p53 DNA binding domain (aa 92-aa 312) (Homo sapiens, UniProt P04637); test: Scintillation Proximity Assay (SPA), displacement of 3H STANDARD COMPOUND; conditions: for remaining activity at 2 µg/mL: 1 h
From the text: Most of the oncogenic mutants of the tumor suppressor protein p53 lack sequence specific DNA binding activity at physiological temperature due to conformational changes in the DNA binding domain. Small molecules and peptide which bind to the p53 DNA binding domain stabilize the conformation and restore DNA binding activity to mutant p53 protein (Science 286, 2507-2510, 1999; PNAS, 99, 937-942, 2002). Using ^3H STANDARD COMPOUND (which is ^3H of the compound #1 of the present invention; the * Carbon atom is the one labeled; structure shown below), [drawing 2234] a radio labeled small molecule which binds to p53, and the GST-p53 DNA binding domain (aa 92-aa 312), we have developed a quantitative screening assay. The assay is based on Scintillation Proximity Assay (SPA) technology, developed by Amersham Biosciences to measure molecular interactions. Briefly, the complex of GST-p53, ^3H STANDARD and Glutathione-SPA beads (Amersham Biosciences) are incubated with mixing for 1 hr at room temperature in the presence of the novel compounds to be screened. The signal is read on Microbeta. The compounds which have the ability to displace ^3H STANDARD COMPOUND are selected. Such molecules will stabilize the conformation and restore DNA binding activity to mutant p53 protein.
The above assay was used to determine the ability of the compounds of this invention to restore DNA binding activity to mutant p53 and the results for selected compounds have been given above in various tables.
A letter rating corresponding to % Residual total binding (T) @ 2 ug/mL of drug (i.e., compound of the present invention) from this assay have been assigned as follows: Compounds having % Residual T values of from 0% to less than 20% have been assigned the letter “A”. Compounds having % Residual T values of from 20% to less than 40% have been assigned the letter “B”. Compounds having % Residual T values of from 40% to less than 80% have been assigned the letter “C”. Compounds having % Residual T values of 80% or higher have been assigned the letter “D”. The exact % Residual T values @ 2 ug/mL for some illustrative compounds are shown below: […]

MB468 = test: Proliferation assay (Calcein AM viability, 72 hours); type: cell-based
Procedure: This assay measures the growth suppression effects of small molecules in cells with mutant p53 vs. p53 null background. It uses Calcein AM to measure cellular viability. Cells (p53 null and mutant) are harvested and plated at 5000 cells per well in a 96-well tissue culture plate. The volume of cells in growth media is 100 µl. Serial dilutions (2× concentration) of compounds are then made and transferred to the plate of cells. The volume of compounds in the growth media is 100 μL. This dilution of compound with cells gives a 1× final dilution of compound (200 μL total volume). Plates are then incubated at 37° C. for 72 hours. Media is then poured off and Calcein AM is added at the appropriate concentration and the plates are incubated in the dark for 15 minutes and read for fluorescence. […] Compounds having EC50 values of 6 uM or higher have been assigned the letter “D”. These letter rating has been used throughout in the data tables above.

[2] = 72 h, MB468 cells, 72 hours, read-out: PROLIFERATION ASSAY EC50 MB468
[3] = 2 ug/mL of drug, lower is better, read-out: SPA ASSAY % Residual T @ 2 ug/mL of drug (Average of)
[4] = MB468 cells, read-out: PROFILE-RATION ASSAY EC50 MB468
[5] = MB168 [sic], read-out: PROFILERATION ASSAY EC50 MB168
[6] = read-out: SPA ASSAY (% residual T @ 2 ug/mL of drug)
[7] = MB468, read-out: PROLIFERATION ASSAY EC50 MB468

Chain of GST-p53 DNA binding domain (aa 92-aa 312) (P04637 92-312): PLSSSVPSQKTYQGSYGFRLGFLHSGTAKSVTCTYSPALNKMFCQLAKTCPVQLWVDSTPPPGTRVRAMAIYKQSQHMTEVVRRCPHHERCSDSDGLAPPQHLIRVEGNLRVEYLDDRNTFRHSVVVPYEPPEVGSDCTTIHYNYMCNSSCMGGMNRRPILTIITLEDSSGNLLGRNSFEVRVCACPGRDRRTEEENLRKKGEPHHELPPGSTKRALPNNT

`CN(C)CCCNc1nc(CN2CCN(C(c3ccccc3)c3ccc(OC(F)(F)F)cc3)CC2)nc2ccccc12` (single isomer, unassigned; (+)) [11 isomer 1, (+)-N,N-DIMETHYL-N′-[2-{4-[PHENYL-(4-TRIFLUOROMETHOXYPHENYL)METHYL]-PIPERAZIN-1-YLMETHYL}QUINAZOLIN-4-YL]PROPANE-1,3-DIAMINE] gave a remaining activity at 2 µg/mL ([1]; 2 ug/mL of drug, lower is better, read-out: % Residual T @ 2 ug/mL rating according to scintillation proximity assay (SPA)) of 20 to 40% and a pEC50 (MB468; 72 h, MB468 cells, 72 hours, read-out: EC50 rating according to the proliferation assay (MB468)) greater than 5.70.
With `COc1ccc(/C=C/c2nc(NCCCN(C)C)c3ccccc3n2)cc1` [CP-31398, reference compound] the pEC50 (MB468; [2]) was 5.39.
In the case of `CN(C)CCCNc1nc(CN2CCN(C(c3ccccc3)c3ccc(OC(F)(F)F)cc3)CC2)nc2ccccc12` (stereo not shown) [Example 11-1], the remaining activity at 2 µg/mL [1, 3] was 27.9% and the pEC50 (MB468; MB468 cells, 72 hours, read-out: PROLIFERATION ASSAY EC50 MB468) was 5.85.
Compound `CN(C)CCCNc1nc(CN2CCN(C(c3ccccc3)c3ccc(OC(F)(F)F)cc3)CC2)nc2ccccc12` (stereo not shown) [Example 11-2] has a pEC50 (MB468; [2]) of 5.80.
`CN(C)CCCOc1nc(CN2CCN(C(c3ccc(Cl)cc3)c3ccc(Cl)cc3)CC2)nc2ccccc12` [Example 16, [3-(2-{4-[BIS-(4-CHLOROPHENYL)METHYL]PIPERAZIN-1-YLMETHYL}QUINAZOLIN-4-YLOXY)PROPYL]DIMETHYLAMINE] was tested, and the remaining activity at 2 µg/mL ([1]; read-out: % Residual T @ 2 ug/mL rating according to scintillation proximity assay (SPA)) was greater than 80% and the pEC50 (MB468; 72 h, read-out: EC50 rating according to the proliferation assay (MB468)) was less than 5.22.
In the case of `COC(=O)[C@@H](Nc1nc(CN2CCN(C(=O)Nc3ccc(C(C)C)cc3)CC2)nc2ccccc12)C(C)C` [Example 20-29], the “SPA Assay (% residual T @ 2 ug/mL of drug)” value ([1]; 2 ug/mL of drug) was “B (Compounds having % Residual T values of from 20% to less than 40% have been assigned the letter “B”)”, the remaining activity at 2 µg/mL [1, 3] was 39.5% and the pEC50 (MB468; MB468 cells, read-out: PROLIFERATION ASSAY EC50 MB468) was 5.22 to 5.40.
`CN(C)CCCNc1nc(CN2CCN(Cc3cccc4cc[nH]c34)CC2)nc2ccccc12` [Example 25-29] was tested, and the “SPA Assay (% residual T @ 2 ug/mL of drug)” value ([1]; 2 ug/mL of drug) was “B (Compounds having % Residual T values of from 20% to less than 40% have been assigned the letter “B”)”, the remaining activity at 2 µg/mL [1, 3] was 37.9% and the pEC50 (MB468; [4]) was 5.22 to 5.40.
In the case of `CCC(C)(C)C1CCC(N2CCN(Cc3nc(NCCCN(C)C)c4ccccc4n3)CC2)C1` (stereo not shown) [Example 25-73], the “SPA Assay (% residual T @ 2 ug/mL of drug)” value ([1]; 2 ug/mL of drug) was “C (Compounds having % Residual T values of from 40% to less than 80% have been assigned the letter “C”)” and the pEC50 (MB468; [4]) was 5.22 to 5.40.
In the case of `CCC(C)(C)C1CCC(N2CCN(Cc3nc(NCCCN(C)C)c4ccccc4n3)CC2)CC1` (stereo not shown) [Example 25-90], the “SPA Assay (% residual T @ 2 ug/mL of drug)” value ([1]; 2 ug/mL of drug) was “B (Compounds having % Residual T values of from 20% to less than 40% have been assigned the letter “B”)”, the remaining activity at 2 µg/mL [1, 3] was 38.1% and the pEC50 (MB468; [2]) was 5.70. It also gave a pEC50 (MB468; [4]) of 5.40 to 5.70.
With `Cc1cc(C)c(NC(=O)N2CCN(Cc3nc(NCCCN(C)C)c4ccccc4n3)CC2)c(C)c1` [Example 28-4] the “SPA ASSAY (% Residual T @ 2 ug/mL of drug (average of))” value ([1]; 2 ug/mL of drug) was “C (Compounds having % Residual T values of from 40% to less than 80% have been assigned the letter “C”)” and the pEC50 (MB468; [5]) was 5.22 to 5.40.
In the case of `CN(C)CCCNc1nc(CN2CCN(C(=O)Nc3ccc(C#N)cc3)CC2)nc2ccccc12` [Example 28-13], the “SPA ASSAY (% Residual T @ 2 ug/mL of drug (average of))” value ([1]; 2 ug/mL of drug) was “C (Compounds having % Residual T values of from 40% to less than 80% have been assigned the letter “C”)” and the pEC50 (MB468; [5]) was less than 5.22.
`COc1ccc(NC(=O)N2CCN(Cc3nc(NCCCN(C)C)c4ccccc4n3)CC2)cc1` [Example 28-20] was tested, and the “SPA ASSAY (% Residual T @ 2 ug/mL of drug (average of))” value ([1]; 2 ug/mL of drug) was “B (Compounds having % Residual T values of from 20% to less than 40% have been assigned the letter “B”)”, the remaining activity at 2 µg/mL [1, 3] was 38% and the pEC50 (MB468; [5]) was less than 5.22.
`CN(C)CCCNc1nc(CN2CCN(C(=O)Nc3ccc(Cl)c(Cl)c3)CC2)nc2ccccc12` [Example 28-39] was tested, and the “SPA ASSAY (% Residual T @ 2 ug/mL of drug (average of))” value ([1]; 2 ug/mL of drug) was “B (Compounds having % Residual T values of from 20% to less than 40% have been assigned the letter “B”)”, the remaining activity at 2 µg/mL [1, 3] was 29.9% and the pEC50 (MB468; [5]) was 5.22 to 5.40.
`Clc1ccc(C(c2ccc(Cl)cc2)N2CCN(Cc3nc(N4CCOCC4)c4ccccc4n3)CC2)cc1` [Example 30-3] showed a remaining activity at 2 µg/mL [1, 6] greater than 80% and a pEC50 (MB468; [7]) of less than 5.22.
Compound `OC1CCN(c2nc(CN3CCN(C(c4ccc(Cl)cc4)c4ccc(Cl)cc4)CC3)nc3ccccc23)C1` (stereo not shown) [Example 30-4] has a remaining activity at 2 µg/mL [1, 6] greater than 80% and a pEC50 (MB468; [7]) of less than 5.22.
